Columns and labels:
Type in all cases: in vivo
[1] = tested on: Kochia scoparia (KCHSC); assay: Herbicidal pre-emergence action, section A (Table A4); conditions: visual grading after ca. 3 weeks vs untreated controls; for pest or weed control at 320 g/ha: application rate 320 g/ha
Excerpt: (§1) Seeds of mono- and dicotyledonous weed plants were sown in plastic pots (double sowings with one species of mono- and one species of dicotyledonous weed plants per pot), in sandy loam, and covered with soil. The compounds according to the invention, formulated in the form of wettable powders (WP) or as emulsifiable concentrates (EC), were applied to the surface of the covering soil as aqueous suspension or emulsion, with the addition of 0.5% of an additive, at an application rate of 600 l of water per hectare (converted). Following treatment, the pots were placed in a greenhouse and kept under optimum growth conditions for the test plants. The visual grading of the damage to the test plants was carried out after ca. 3 weeks in comparison to untreated controls (herbicidal effect in percent (%): 100% effect=plants have died off, 0% effect=as control plants).

[2] = tested on: Lolium rigidum (LOLRI); assay: Herbicidal pre-emergence action, section A (Table A5); conditions: application rate 1280 g/ha, visual grading after ca. 3 weeks vs untreated controls; for pest or weed control at 1280 g/ha: Lolium rigidum, pre-emergence, 504 h, read-out: pre-emergence activity against LOLRI in %
Excerpt: as §1

[3] = tested on: Matricaria inodora (MATIN); assay: Herbicidal pre-emergence action, section A (Table A6); conditions: Tripleurospermum inodorum, pre-emergence, 504 h; application rate 1280 g/ha; visual grading after ca. 3 weeks vs untreated controls; read-out: pre-emergence activity against MATIN in %
Excerpt: as §1

[4] = tested on: Poa annua (POAAN); assay: Herbicidal pre-emergence action, section A (Table A7); conditions: visual grading after ca. 3 weeks vs untreated controls
Excerpt: as §1

[5] = tested on: Setaria viridis (SETVI); assay: Herbicidal pre-emergence action, section A (Table A8); conditions: for pest or weed control at 320 g/ha: Setaria viridis, 504 h, read-out: pre-emergence activity against SETVI in %
Excerpt: as §1

[6] = tested on: Stellaria media (STEME); assay: Herbicidal pre-emergence action, section A (Table A9); conditions: Stellaria media, 504 h, application rate 1280 g/ha, read-out: pre-emergence activity against STEME in %
Excerpt: as §1

[7] = tested on: Amaranthus retroflexus (AMARE); assay: Herbicidal pre-emergence action, section A (Table A11); conditions: for pest or weed control at 320 g/ha: application rate 320 g/ha
Excerpt: as §1

[8] = tested on: Digitaria sanguinalis (DIGSA); assay: Herbicidal pre-emergence action, section A (Table A12); conditions: for pest or weed control at 1280 g/ha / pre-emergence activity against DIGSA in %: application rate 1280 g/ha
Excerpt: as §1

[9] = tested on: Kochia scoparia (KCHSC); assay: Herbicidal post-emergence action, section B (Table B4); conditions: visual rating about 3 weeks after treatment vs untreated controls; for pest or weed control at 1280 g/ha / post-emergence activity against KCHSC in %: application rate 1280 g/ha
Experimental: (§2) Seeds of mono- and dicotyledonous weed plants were placed in plastic pots in sandy loam soil (doubly sown with in each case one species of mono- or dicotyledonous weed plants per pot), covered with soil and cultivated in a greenhouse under controlled growth conditions. 2 to 3 weeks after sowing, the test plants were treated at the one-leaf stage. The compounds of the invention, formulated in the form of wettable powders (WP) or as emulsion concentrates (EC), were applied onto the green parts of the plants as aqueous suspension or emulsion with addition of 0.5% additive at a water application rate of 600 liters per hectare (converted). After the test plants had been kept in the greenhouse under optimum growth conditions for about 3 weeks, the activity of the preparations was rated visually in comparison to untreated controls. For example, 100% activity=the plants have died, 0% activity=like control plants.

[10] = tested on: Stellaria media (STEME); assay: Herbicidal post-emergence action, section B (Table B9); conditions: application rate 1280 g/ha, visual rating about 3 weeks after treatment vs untreated controls
Experimental: as §2

[11] = tested on: Amaranthus retroflexus (AMARE); assay: Herbicidal post-emergence action, section B (Table B11); conditions: application rate 1280 g/ha, visual rating about 3 weeks after treatment vs untreated controls
Experimental: as §2

[12] = tested on: Echinochloa crus-galli (ECHCG); assay: Herbicidal pre-emergence action, section A (Table A3); conditions: application rate 1280 g/ha, visual grading after ca. 3 weeks vs untreated controls; for pest or weed control at 1280 g/ha: Echinochloa crus-galli, pre-emergence, 504 h, read-out: pre-emergence activity against ECHCG in %
Excerpt: as §1

[13] = tested on: Veronica persica (VERPE); assay: Herbicidal pre-emergence action, section A (Table A10); conditions: Veronica persica, 504 h, application rate 1280 g/ha, read-out: pre-emergence activity against VERPE in %
Excerpt: as §1

[14] = tested on: Veronica persica (VERPE); assay: Herbicidal post-emergence action, section B (Table B10); conditions: application rate 1280 g/ha, visual rating about 3 weeks after treatment vs untreated controls
Experimental: as §2

[15] = Bassia scoparia, pre-emergence, 504 h, read-out: pre-emergence activity against KCHSC in %
[16] = Amaranthus retroflexus, 504 h, read-out: pre-emergence activity against AMARE in %
[17] = Digitaria sanguinalis, 504 h, read-out: pre-emergence activity against DIGSA in %
[18] = Poa annua, pre-emergence, 504 h, application rate 320 g/ha, read-out: pre-emergence activity against POAAN in %
[19] = Bassia scoparia, post-emergence, 504 h, read-out: post-emergence activity against KCHSC in %

Work on `Cc1cc2c(nc1-c1cccc(F)c1F)N(C(=O)C(C)C)C[S+]2[O-]` (centres unmarked) [Example I-028] yielded a pest or weed control at 320 g/ha [1, 15] of 90%, a pest or weed control at 1280 g/ha [2] of 100% and a pest or weed control at 1280 g/ha [3] of 90%. For the same compound, the pest or weed control at 1280 g/ha ([4]; Poa annua, pre-emergence, 504 h, application rate 1280 g/ha, read-out: pre-emergence activity against POAAN in %) was 100%, the pest or weed control at 320 g/ha ([5]; application rate 320 g/ha) was 100% and the pest or weed control at 1280 g/ha [6] was 90%. For the same compound, the pest or weed control at 320 g/ha [7, 16] was 90%, the pest or weed control at 1280 g/ha [8, 17] was 100% and the pest or weed control at 320 g/ha ([9]; Bassia scoparia, post-emergence, 504 h, application rate 320 g/ha, read-out: post-emergence activity against KCHSC in %) was 90%. The pest or weed control at 1280 g/ha ([10]; Stellaria media, post-emergence, 504 h, read-out: post-emergence activity against STEME in %) was 90%.

In the case of `O=C(c1ccccc1C(F)(F)F)N1CSc2cc(Br)c(-c3ccc(F)cc3F)nc21` [Example I-043], the “pre-emergence activity against POAAN in %” value ([4]; application rate 1280 g/ha) is reported as 90% and the “post-emergence activity against AMARE in %” value [11] is reported as 90%.

In the case of `CCC(=O)N1C[S+]([O-])c2cc(C)c(-c3ccc(F)cc3F)nc21` (centres unmarked) [Example I-053], the pest or weed control at 1280 g/ha [12] is reported as 100%, the pest or weed control at 320 g/ha [1, 15] is reported as 90% and the pest or weed control at 1280 g/ha [2] is reported as 100%. For the same compound, the pest or weed control at 1280 g/ha [3] was 90%, the pest or weed control at 320 g/ha [4, 18] was 100% and the pest or weed control at 320 g/ha ([5]; application rate 320 g/ha) was 100%. For the same compound, the pest or weed control at 1280 g/ha [6] was 90%, the pest or weed control at 1280 g/ha [13] was 90% and the pest or weed control at 320 g/ha [7, 16] was 90%. The pest or weed control at 320 g/ha ([8]; Digitaria sanguinalis, 504 h, application rate 320 g/ha, read-out: pre-emergence activity against DIGSA in %) was 100% and the pest or weed control at 1280 g/ha ([11]; Amaranthus retroflexus, post-emergence, 504 h, read-out: post-emergence activity against AMARE in %) was 90%.

Compound `Cc1ccccc1-c1nc2c(cc1C)[S+]([O-])CN2C(=O)C1CC1` (centres unmarked) [Example I-063] has a pest or weed control at 1280 g/ha [12] of 100%, a pest or weed control at 1280 g/ha [2] of 100% and a pest or weed control at 320 g/ha [4, 18] of 100%. It also gave a pest or weed control at 320 g/ha ([5]; application rate 320 g/ha) of 100%, a pest or weed control at 1280 g/ha [6] of 90% and a pest or weed control at 1280 g/ha [13] of 90%. For the same compound, the pest or weed control at 320 g/ha [7, 16] was 90%, the pest or weed control at 1280 g/ha [8, 17] was 100% and the pest or weed control at 1280 g/ha [9, 19] was 90%. The pest or weed control at 1280 g/ha ([14]; Veronica persica, post-emergence, 504 h, read-out: post-emergence activity against VERPE in %) was 90%.

With `CCc1ccccc1-c1nc2c(cc1Br)SCN2B(N)N` [Example I-080] the “pre-emergence activity against DIGSA in %” value [8] was 100% and the “post-emergence activity against AMARE in %” value [11] was 90%.

For `COC(=O)CCC(=O)N1CSc2cc(C)c(-c3ccc(F)cc3F)nc21` [Example I-084], the “pre-emergence activity against ECHCG in %” value [12] was 100%, the “pre-emergence activity against KCHSC in %” value ([1]; application rate 1280 g/ha) was 90% and the “pre-emergence activity against LOLRI in %” value [2] was 100%. The “pre-emergence activity against POAAN in %” value ([4]; application rate 320 g/ha) was 100%, the “pre-emergence activity against SETVI in %” value ([5]; application rate 320 g/ha) was 100% and the “pre-emergence activity against AMARE in %” value ([7]; application rate 1280 g/ha) was 90%. The “pre-emergence activity against DIGSA in %” value [8] was 100%, the “post-emergence activity against KCHSC in %” value [9] was 90% and the “post-emergence activity against STEME in %” value [10] was 90%. For the same compound, the “post-emergence activity against VERPE in %” value [14] was 90% and the “post-emergence activity against AMARE in %” value [11] was 90%.

Work on `COc1ccccc1-c1nc2c(cc1C)[S+]([O-])CN2S(C)(=O)=O` (centres unmarked) [Example I-101] yielded a pest or weed control at 1280 g/ha [12] of 90%, a pest or weed control at 1280 g/ha ([1]; Bassia scoparia, pre-emergence, 504 h, application rate 1280 g/ha, read-out: pre-emergence activity against KCHSC in %) of 90% and a pest or weed control at 1280 g/ha [2] of 100%. For the same compound, the pest or weed control at 320 g/ha ([5]; application rate 320 g/ha) was 100%, the pest or weed control at 1280 g/ha ([7]; Amaranthus retroflexus, 504 h, application rate 1280 g/ha, read-out: pre-emergence activity against AMARE in %) was 90% and the pest or weed control at 1280 g/ha [8, 17] was 90%. It also gave a pest or weed control at 1280 g/ha [9, 19] of 90%.

In the case of `Fc1c(Cl)cccc1-c1nc2c(cc1Br)SCN2` [Example I-103], the “pre-emergence activity against ECHCG in %” value [12] is reported as 90%, the “pre-emergence activity against POAAN in %” value ([4]; application rate 1280 g/ha) is reported as 100% and the “pre-emergence activity against SETVI in %” value ([5]; application rate 1280 g/ha) is reported as 100%. The “pre-emergence activity against AMARE in %” value ([7]; application rate 1280 g/ha) was 90%, the “post-emergence activity against KCHSC in %” value [9] was 90% and the “post-emergence activity against STEME in %” value [10] was 90%.

From US20240381872A1, “SUBSTITUTED 2,3-DIHYDRO[1,3]THIAZOLO[4,5-B]PYRIDINES, SALTS THEREOF AND THEIR USE AS HERBICIDALLY ACTIVE SUBSTANCES” (BAYER AKTIENGESELLSCHAFT, priority 2021, published 2024)
